“Also recorded” adds a separate entry of the source.
Experiments:
[1] = test system: cells which are independent from the JAK-STAT signal; conditions: cited from earlier work
STAT3 negative cells = conditions: 80 μM AG490; cited from earlier work
[2] = test system: human B-precursor leukemic cell line; conditions: by inducing apoptosis; cited from earlier work
craNCSC clone D7-1 = experiment: AG490 (Jak inhibitor) treatment of long-term cultured craNCSC clone D7-1, alive cell count; type: cell-based, mouse; conditions: counted daily, vs 0.4% DMSO vehicle
Procedure: (§1) AG490 (Sigma Chemical Co., St Louis, Mo., USA) was reconstituted in dimethyl sulfoxide (DMSO) and stored at −20° C. A stock concentration was 10 mM. Cranial tissues of Wnt1-Cre;R26R;EGFP mouse at E8.5 were dissociated by 0.025% trypsin and 1 mg/ml collagenase in DPBS. Then, neural crest cells labeled with Wnt1-Cre;R26R;EGFP were sorted by means of FACS and used for Jak inhibitor treatment. D7-1 or primary cultured cranial neural crest cells were seeded to fibronectin coated plate at a density of 20000 or 12700 cell/cm^2 respectively, and incubated for three days in basal medium as described above, added with either control DMSO, 10 μM AG490, or 20 μM AG490. Culture medium was changed daily. Alive cell number was counted on each day for D7-1 and third day for primary cultured cells.
The hypothesis that phosphorylation of STAT3 by JAK kinase is essential for the maintenance of craNCSC was also investigated. JAK inhibitor AG490 was used for this study. AG490 is synthetic PTK inhibitor with anti-JAK2 activity. […] If craNCSC require the JAK-STAT signal for its maintenance, treatment of AG490 will cause overt effects. 10 μM and 20 μM AG490 treatment against D7-1 was performed for three days and alive cell number was counted on each day. […] Dose dependent susceptibility of D7-1 against AG490 was also evident.

[3] = test system: primary cultured cranial neural crest cells; experiment: AG490 (Jak inhibitor) treatment of primary cultured cranial neural crest cells, alive cell count; type: cell-based, mouse; conditions: E8.5 FACS sorted cells
Procedure: as §1
These experiments were done with a long-term cultured craNCSC clone, D7-1, which has been treated with LIF during entire culture process. Therefore, it is possible that D7-1 cells has been poised to LIF and adopted to the JAK-STAT dependent culture condition. To evaluate this, Applicants freshly isolated Wnt1-Cre;R26R;EGFP positive cranial neural crest cells from E8.5 mouse embryos by FACS sorting and treated them with AG490 for three days. If JAK2 activity is dispensable to these primary neural crest, chemical treatment would not cause any apparent effects. […]

SMILES: N#C/C(=C/c1ccc(O)c(O)c1)C(=O)NCc1ccccc1 [AG490]
- effect on cells [1]: no obvious effect
- general toxicity (STAT3 negative cells): does not cause general toxicity
- cell growth [2]: prevents the growth
- alive (viable) cell number (craNCSC clone D7-1; 10 μM AG490, three days): smaller effect; also recorded: more modest effect
- alive (viable) cell number (craNCSC clone D7-1; 20 μM AG490, three days): significant reduction of the viable cells; also recorded: significant depletion of cell survival
- cell mortality (alive cell number) ([3]; 10 μM AG490, three days): High cell mortality
- cell mortality (alive cell number) ([3]; 20 μM AG490, three days): High cell mortality

Reference: patent US20120219535A1, “CRANIAL NEURAL CREST STEM CELLS AND CULTURE CONDITION THAT SUPPORTS THEIR GROWTH” (University of Southern California, priority 2009, published 2012)
